Like-named read-outs stand apart in the source and are kept apart here. Numbered stars: 1 amine (or outer) side, 2 acyl side, 3 side chain; on linkers, the order of the positions; unused ones are H or OH. Square brackets hold non-standard residues; d marks the D form. Side chains are listed from the residue outwards. Peptide text beside a SMILES is read from it. * marks the point of attachment. γGlu = O=C(O)[C@H](CCC(=O)[*:2])N[*:1]; X2 = O=C(CSCC(=O)*)NCCN1C(=O)CSC1=O; Palmitoyl = CCCCCCCCCCCCCCCC(=O)*; Aib = CC(C)(N)C(=O)O
Columns and labels:
Format in all cases: cell-based
GIP-R = target: T1, GIP-R (Homo sapiens, UniProt P48546); experiment: HitHunter cAMP assay (GIP-R); conditions: cAMP; for Emax: read-out: (Emax) GIP-R
T1 sequence (P48546 22-466): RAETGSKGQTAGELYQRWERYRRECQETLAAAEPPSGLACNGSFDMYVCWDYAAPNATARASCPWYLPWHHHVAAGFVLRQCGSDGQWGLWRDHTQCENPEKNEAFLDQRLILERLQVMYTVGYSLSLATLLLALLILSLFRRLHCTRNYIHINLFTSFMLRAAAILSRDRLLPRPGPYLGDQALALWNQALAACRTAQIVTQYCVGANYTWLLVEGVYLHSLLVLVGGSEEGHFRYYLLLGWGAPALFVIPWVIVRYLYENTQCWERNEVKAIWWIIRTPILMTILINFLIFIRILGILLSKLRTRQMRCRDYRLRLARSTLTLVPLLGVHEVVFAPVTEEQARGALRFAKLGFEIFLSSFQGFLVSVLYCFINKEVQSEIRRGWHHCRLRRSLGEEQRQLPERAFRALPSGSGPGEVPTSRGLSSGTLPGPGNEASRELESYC
Procedure, shortened: (§1)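 Suspension cells expressing each receptor (10,000 per well) in HBSS with 10 mM HEPES, 625 μM IBMX and 0.2% BSA were treated with a 22-point 2-fold agonist series in duplicate for 30 minutes at room temperature. cAMP was detected by antibody immunocompetition with luminescence read after overnight incubation.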

GLP-1R [1] = target: T2, GLP-1R (Homo sapiens, UniProt P43220); experiment: HitHunter cAMP assay (GLP-1R); conditions: cAMP; for Emax: read-out: (Emax) GLP-1R
Procedure, shortened: as §1

GLP-1R [2] = target: T2, GLP-1R; experiment: PathHunter β-arrestin assay
Procedure, shortened: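 Cells seeded overnight, then medium replaced with medium containing 0.2% BSA; agonists added as 22-point 2-fold DMSO dilution series in duplicate and incubated 90 min at 37 °C, 5% CO2. After addition of detection solution, plates sat 3 h at room temperature in the dark; luminescence read.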

[3] = Table 3, read-out: EC50 GIP-R/nM
[4] = Table 3A, read-out: EC50 GIP-R/nM
[5] = Table 3, read-out: EC50 GLP-1R/nM
[6] = Table 3A, read-out: EC50 GLP-1R/nM
[7] = PathHunter β-arrestin assay, read-out: β-arrestin activity EC50

T2 sequence (P43220 24-463): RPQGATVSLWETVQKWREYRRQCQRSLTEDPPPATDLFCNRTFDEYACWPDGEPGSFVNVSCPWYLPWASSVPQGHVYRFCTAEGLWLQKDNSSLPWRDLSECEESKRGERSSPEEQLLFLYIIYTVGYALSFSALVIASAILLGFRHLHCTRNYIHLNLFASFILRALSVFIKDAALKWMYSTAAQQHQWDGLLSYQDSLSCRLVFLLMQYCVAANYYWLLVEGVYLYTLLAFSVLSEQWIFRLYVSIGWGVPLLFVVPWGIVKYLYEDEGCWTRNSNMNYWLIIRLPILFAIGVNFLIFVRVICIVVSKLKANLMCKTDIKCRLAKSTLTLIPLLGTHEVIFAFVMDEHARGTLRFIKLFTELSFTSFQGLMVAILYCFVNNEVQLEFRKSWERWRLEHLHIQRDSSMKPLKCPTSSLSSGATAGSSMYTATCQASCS

SMILES	Emax (GIP-R; Table 3) [%]	EC50 (GIP-R; [3]) [nM]	Emax (GIP-R; Table 3A) [%]	EC50 (GIP-R; [4]) [nM]	Emax (GLP-1R [1]; Table 3) [%]	EC50 (GLP-1R [1]; [5]) [nM]	Emax (GLP-1R [1]; Table 3A) [%]	EC50 (GLP-1R [1]; [6]) [nM]	EC50 (GLP-1R [2]; [7]) [nM]	EC50 (GIP-R; EC50 GIP-R/nM, Table 3) [nM]	EC50 (GIP-R; EC50 GIP-R/nM, Table 3A) [nM]	EC50 (GLP-1R [1]; EC50 GLP-1R/nM, Table 3) [nM]	EC50 (GLP-1R [1]; EC50 GLP-1R/nM, Table 3A) [nM]	EC50 (GLP-1R [2]) [nM]
CCCCCCCCCCCCCCCC(=O)NCCCC[C@H](NC(=O)[C@H](CO)NC(=O)[C@@H]1CCCN1C(=O)[C@@H]1CCCN1C(=O)[C@@H]1CCCN1C(=O)[C@H](C)NC(=O)CNC(=O)[C@H](CO)NC(=O)[C@H](CO)NC(=O)[C@@H]1CCCN1C(=O)CNC(=O)CNC(=O)[C@H](C)NC(=O)[C@H](CC(C)C)NC(=O)[C@H](CC(C)C)NC(=O)[C@H](Cc1c[nH]c2ccccc12)NC(=O)[C@H](CC(N)=O)NC(=O)[C@@H](NC(=O)[C@H](Cc1ccccc1)NC(=O)[C@H](CCC(=O)O)NC(=O)C(C)(C)NC(=O)[C@H](C)NC(=O)[C@H](C)NC(=O)[C@H](CCC(N)=O)NC(=O)[C@H](CCCCN)NC(=O)[C@H](CC(=O)O)NC(=O)[C@H](CC(C)C)NC(=O)[C@H](Cc1ccc(O)cc1)NC(=O)[C@@H](NC(=O)[C@H](CO)NC(=O)[C@H](Cc1ccc(O)cc1)NC(=O)[C@H](CC(=O)O)NC(=O)[C@H](CO)NC(=O)[C@@H](NC(=O)[C@H](Cc1ccccc1)NC(=O)[C@@H](NC(=O)CNC(=O)[C@H](CCC(=O)O)NC(=O)CSCC(=O)NCCN1C(=O)CSC1=O)[C@@H](C)O)[C@@H](C)O)[C@@H](C)CC)C(C)C)C(N)=O [Compound 60]	37	1 to 10	37	1 to 10	98	0.1 to 1	98	0.1 to 1	> 1000	–	–	–	–	–
CCCCCCCCCCCCCCCC(=O)N[C@@H](CCC(=O)NCCCC[C@H](NC(=O)[C@H](CO)NC(=O)[C@@H]1CCCN1C(=O)[C@@H]1CCCN1C(=O)[C@@H]1CCCN1C(=O)[C@H](C)NC(=O)CNC(=O)[C@H](CO)NC(=O)[C@H](CO)NC(=O)[C@@H]1CCCN1C(=O)CNC(=O)CNC(=O)[C@H](C)NC(=O)[C@H](CC(C)C)NC(=O)[C@H](CC(C)C)NC(=O)[C@H](Cc1c[nH]c2ccccc12)NC(=O)[C@H](CC(N)=O)NC(=O)[C@@H](NC(=O)[C@H](Cc1ccccc1)NC(=O)[C@H](CCC(=O)O)NC(=O)C(C)(C)NC(=O)[C@H](C)NC(=O)[C@H](C)NC(=O)[C@H](CCC(N)=O)NC(=O)[C@H](CCCCN)NC(=O)[C@H](CC(=O)O)NC(=O)[C@H](CCSC)NC(=O)[C@H](C)NC(=O)[C@@H](NC(=O)[C@H](CO)NC(=O)[C@H](Cc1ccc(O)cc1)NC(=O)[C@H](CC(=O)O)NC(=O)[C@H](CO)NC(=O)[C@@H](NC(=O)[C@H](Cc1ccccc1)NC(=O)[C@@H](NC(=O)CNC(=O)[C@H](CCC(=O)O)NC(=O)CSCC(=O)NCCN1C(=O)CSC1=O)[C@@H](C)O)[C@@H](C)O)[C@@H](C)CC)C(C)C)C(N)=O)C(=O)O [Compound 71] (X2-EGTFTSDYSIAMDKQAA[Aib]EFVNWLLAGGPSSGAPPPSK([γGlu-Palmitoyl])-NH2)	77 to 87	1 to 10	77 to 87	1 to 10	102	0.1 to 10	102	0.1 to 10	> 1000	–	–	–	–	–
CCCCCCCCCCCCCCCC(=O)N[C@@H](CCC(=O)NCCCC[C@H](NC(=O)[C@H](CO)NC(=O)[C@@H]1CCCN1C(=O)[C@@H]1CCCN1C(=O)[C@@H]1CCCN1C(=O)[C@H](C)NC(=O)CNC(=O)[C@H](CO)NC(=O)[C@H](CO)NC(=O)[C@@H]1CCCN1C(=O)CNC(=O)CNC(=O)[C@H](C)NC(=O)[C@H](CC(C)C)NC(=O)[C@H](CC(C)C)NC(=O)[C@H](Cc1c[nH]c2ccccc12)NC(=O)[C@H](CC(N)=O)NC(=O)[C@@H](NC(=O)[C@H](Cc1ccccc1)NC(=O)[C@H](CCC(=O)O)NC(=O)C(C)(C)NC(=O)[C@H](C)NC(=O)[C@H](C)NC(=O)[C@H](CCC(N)=O)NC(=O)[C@H](CCCCN)NC(=O)[C@H](CC(=O)O)NC(=O)[C@H](CCSC)NC(=O)[C@H](CCC(N)=O)NC(=O)[C@@H](NC(=O)[C@H](CO)NC(=O)[C@H](Cc1ccc(O)cc1)NC(=O)[C@H](CC(=O)O)NC(=O)[C@H](CO)NC(=O)[C@@H](NC(=O)[C@H](Cc1ccccc1)NC(=O)[C@@H](NC(=O)CNC(=O)[C@H](CCC(=O)O)NC(=O)CSCC(=O)NCCN1C(=O)CSC1=O)[C@@H](C)O)[C@@H](C)O)[C@@H](C)CC)C(C)C)C(N)=O)C(=O)O [Compound 72] (X2-EGTFTSDYSIQMDKQAA[Aib]EFVNWLLAGGPSSGAPPPSK([γGlu-Palmitoyl])-NH2)	87	0.1 to 1	87	0.1 to 1	105	0.1 to 1	105	0.1 to 1	> 1000	–	–	–	–	–
CCCCCCCCCCCCCCCC(=O)N[C@@H](CCC(=O)NCCCC[C@H](NC(=O)[C@H](CO)NC(=O)[C@@H]1CCCN1C(=O)[C@@H]1CCCN1C(=O)[C@@H]1CCCN1C(=O)[C@H](C)NC(=O)CNC(=O)[C@H](CO)NC(=O)[C@H](CO)NC(=O)[C@@H]1CCCN1C(=O)CNC(=O)CNC(=O)[C@H](C)NC(=O)[C@H](CC(C)C)NC(=O)[C@H](CC(C)C)NC(=O)[C@H](Cc1c[nH]c2ccccc12)NC(=O)[C@H](CC(N)=O)NC(=O)[C@@H](NC(=O)[C@H](Cc1ccccc1)NC(=O)[C@H](CCC(=O)O)NC(=O)C(C)(C)NC(=O)[C@H](C)NC(=O)[C@H](C)NC(=O)[C@H](CCC(N)=O)NC(=O)[C@H](CCCCN)NC(=O)[C@H](CC(=O)O)NC(=O)[C@H](CC(C)C)NC(=O)[C@H](Cc1ccc(O)cc1)NC(=O)[C@@H](NC(=O)[C@H](CO)NC(=O)[C@H](Cc1ccc(O)cc1)NC(=O)[C@H](CC(=O)O)NC(=O)[C@H](CO)NC(=O)[C@@H](NC(=O)[C@H](Cc1ccccc1)NC(=O)[C@@H](NC(=O)CNC(=O)[C@H](CCC(=O)O)NC(=O)CSCC(=O)NCCN1C(=O)CC[C@@H](C)C1=O)[C@@H](C)O)[C@@H](C)O)[C@@H](C)CC)C(C)C)C(N)=O)C(=O)O [Compound 85]	83	–	83	–	103	–	103	–	–	0.1 to 1	0.1 to 1	1 to 10	1 to 10	> 1000
CCCCCCCCCCCCCCCC(=O)N[C@@H](CCC(=O)NCCCC[C@H](NC(=O)[C@H](CO)NC(=O)[C@@H]1CCCN1C(=O)[C@@H]1CCCN1C(=O)[C@@H]1CCCN1C(=O)[C@H](C)NC(=O)CNC(=O)[C@H](CO)NC(=O)[C@H](CO)NC(=O)[C@@H]1CCCN1C(=O)CNC(=O)CNC(=O)[C@H](C)NC(=O)[C@H](CC(C)C)NC(=O)[C@H](CC(C)C)NC(=O)[C@H](Cc1c[nH]c2ccccc12)NC(=O)[C@H](CC(N)=O)NC(=O)[C@@H](NC(=O)[C@H](Cc1ccccc1)NC(=O)[C@H](CCC(=O)O)NC(=O)C(C)(C)NC(=O)[C@H](C)NC(=O)[C@H](C)NC(=O)[C@H](CCC(N)=O)NC(=O)[C@H](CCCCN)NC(=O)[C@H](CC(=O)O)NC(=O)[C@H](CC(C)C)NC(=O)[C@H](Cc1ccc(O)cc1)NC(=O)[C@@H](NC(=O)[C@H](CO)NC(=O)[C@H](Cc1ccc(O)cc1)NC(=O)[C@H](CC(=O)O)NC(=O)[C@H](CO)NC(=O)[C@@H](NC(=O)[C@H](Cc1ccccc1)NC(=O)[C@@H](NC(=O)CNC(=O)[C@H](CCC(=O)O)NC(=O)CSCC(=O)NCCN1CCSC1=O)[C@@H](C)O)[C@@H](C)O)[C@@H](C)CC)C(C)C)C(N)=O)C(=O)O [Compound 86]	61	1 to 10	61	1 to 10	110	0.1 to 1	110	0.1 to 1	> 1000	–	–	–	–	–
